From patent US20190388425A1, “SUBSTITUTED IMIDAZOPYRIDINPYRIMIDINES” (Bayer Pharma Aktiengesellschaft, priority 2017, published 2019)

target: T1, human full-length MKNK1 (Homo sapiens, UniProt Q9BUB5, T385D); test: MKNK1 kinase high ATP assay (TR-FRET); type: biochemical; conditions: TR-FRET, 2 mM ATP (high ATP), 15 min preincubation with enzyme, 30 min reaction at 22° C.; read-out: MKNK1 IC50
T1 construct: GST (N); purchased Carna Biosciences 02-145; host or cells: insect cells (baculovirus expression system)
T1 sequence (Q9BUB5 1-424 isoform Q9BUB5-2 T344D): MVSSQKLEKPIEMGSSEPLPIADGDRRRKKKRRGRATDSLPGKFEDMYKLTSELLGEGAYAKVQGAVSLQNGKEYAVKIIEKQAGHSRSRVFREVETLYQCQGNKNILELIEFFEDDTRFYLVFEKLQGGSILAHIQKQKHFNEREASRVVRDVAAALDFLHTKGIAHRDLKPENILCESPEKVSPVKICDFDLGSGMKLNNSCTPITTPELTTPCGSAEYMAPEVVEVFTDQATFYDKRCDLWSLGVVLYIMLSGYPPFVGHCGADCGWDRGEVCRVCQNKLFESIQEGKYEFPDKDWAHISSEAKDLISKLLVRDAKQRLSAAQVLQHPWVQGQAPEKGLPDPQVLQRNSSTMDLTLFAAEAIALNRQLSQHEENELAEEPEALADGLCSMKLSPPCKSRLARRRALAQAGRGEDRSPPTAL
Method: MKNK1 Kinase High ATP Assay
MKNK1-inhibitory activity at high ATP of compounds of the present invention after their preincubation with MKNK1 was quantified employing the TR-FRET-based MKNK1 high ATP assay as described in the following paragraphs.
As substrate for the kinase reaction the biotinylated peptide biotin-Ahx-[…] (C-terminus in amide form) was used, which can be purchased e.g. from the company Biosyntan (Berlin-Buch, Germany).
For the assay 50 nL of a 100 fold concentrated solution of the test compound in DMSO was pipetted into a black low volume 384 well microtiter plate (Greiner Bio-One, Frickenhausen, Germany), 2 μL of a solution of MKNK1 in aqueous assay buffer [50 mM HEPES pH 7.5, 5 mM MgCl2, 1.0 mM dithiothreitol, 0.005% (v/v) Nonidet-P40 (Sigma)] was added and the mixture was incubated for 15 min at 22° C. to allow pre-binding of the test compounds to the enzyme before the start of the kinase reaction. Then the kinase reaction was started by the addition of 3 μL of a solution of adenosine-tri-phosphate (ATP, 3.3 mM=>final conc. in the 5 μL assay volume is 2 mM) and substrate (0.1 μM=>final conc. in the 5 μL assay volume is 0.06 μM) in assay buffer and the resulting mixture was incubated for a reaction time of 30 min at 22° C. The concentration of MKNK1 was adjusted depending of the activity of the enzyme lot and was chosen appropriate to have the assay in the linear range, typical concentrations were in the range of 0.003 μg/mL. The reaction was stopped by the addition of 5 μL of a solution of TR-FRET detection reagents (5 nM streptavidine-XL665 [Cisbio Bioassays, Codolet, France] and 1 nM anti-ribosomal protein S6 (pSer236)-antibody from Invitrogen [#44921G] and 1 nM LANCE EU-W1024 labeled ProteinG [Perkin-Elmer, product no. AD0071]) in an aqueous EDTA-solution (100 mM EDTA, 0.1% (w/v) bovine serum albumin in 50 mM HEPES pH 7.5).
The resulting mixture was incubated for 1 h at 22° C. to allow the formation of complex between the phosphorylated biotinylated peptide and the detection reagents. Subsequently the amount of phosphorylated substrate was evaluated by measurement of the resonance energy transfer from the Eu-chelate to the streptavidine-XL. Therefore, the fluorescence emissions at 620 nm and 665 nm after excitation at 350 nm were measured in a TR-FRET reader, e.g. a Rubystar (BMG Labtechnologies, Offenburg, Germany) or a Viewlux (Perkin-Elmer). The ratio of the emissions at 665 nm and at 622 nm was taken as the measure for the amount of phosphorylated substrate.

Structure (SMILES)	IC50
Cc1cc(Nc2ncnc3sc4c(c23)CC[C@H](C(=O)N2CC(C#N)C2)C4)c(=O)n2c1C(=O)NC21CCCC1 [Example 39, 1-({(7S)-4-[(8′-Methyl-1′,5′-dioxo-1′,5′-dihydro-2′H-spiro[cyclopentane-1,3′-imidazo[1,5-a]pyridin]-6′-yl)amino]-5,6,7,8-tetrahydro[1]benzothieno[2,3-d]pyrimidin-7-yl}carbonyl)azetidine-3-carbonitrile]	3.3 nM
Cc1cc(Nc2ncnc3sc4c(c23)CCCC4)c(=O)n2c1C(=O)NC21CCCCC1 [Example 43, 8′-Methyl-6′-(5,6,7,8-tetrahydro[1]benzothieno[2,3-d]pyrimidin-4-ylamino)-2′H-spiro[cyclohexane-1,3′-imidazo[1,5-a]pyridine]-1′,5′-dione]	9.9 nM
Cc1cc(Nc2ncnc3sc4c(c23)CC[C@H](C(=O)O)C4)c(=O)n2c1C(=O)NC21CSC1 [Example 44, (7S)-4-[(8-Methyl-1,5-dioxo-1,5-dihydro-2H-spiro[imidazo[1,5-a]pyridine-3,3′-thietan]-6-yl)amino]-5,6,7,8-tetrahydro[1]benzothieno[2,3-d]pyrimidine-7-carboxylic acid]	17.4 nM
Cc1cc(Nc2ncnc3sc4c(c23)CC[C@H](C(=O)N2CCC2)C4)c(=O)n2c1C(=O)NC21CSC1 [Example 46, 6-{[(7S)-7-(Azetidin-1-ylcarbonyl)-5,6,7,8-tetrahydro[1]benzothieno[2,3-d]pyrimidin-4-yl]amino}-8-methyl-2H-spiro[imidazo[1,5-a]pyridine-3,3′-thietane]-1,5-dione]	0.6 nM
Cc1cc(Nc2ncnc3sc4c(c23)CC[C@H](C(=O)N2CC(C#N)C2)C4)c(=O)n2c1C(=O)NC21CSC1 [Example 47, 1-({(7S)-4-[(8-Methyl-1,5-dioxo-1,5-dihydro-2H-spiro[imidazo[1,5-a]pyridine-3,3′-thietan]-6-yl)amino]-5,6,7,8-tetrahydro[1]benzothieno[2,3-d]pyrimidin-7-yl}carbonyl)azetidine-3-carbonitrile]	0.8 nM
Cc1cc(Nc2ncnc3sc4c(c23)CC[C@H](C(=O)N2CC[C@H](N(C)C)C2)C4)c(=O)n2c1C(=O)NC21CSC1 [Example 49, 6-{[(7S)-7-{[(3S)-3-(Dimethylamino)pyrrolidin-1-yl]carbonyl}-5,6,7,8-tetrahydro[1]benzothieno[2,3-d]pyrimidin-4-yl]amino}-8-methyl-2H-spiro[imidazo[1,5-a]pyridine-3,3′-thietane]-1,5-dione]	0.5 nM
Cc1cc(Nc2ncnc3sc4c(c23)CC[C@H](C(=O)N2CCN(C)[C@H](C)C2)C4)c(=O)n2c1C(=O)NC21CSC1 [Example 50, 6-{[(7S)-7-{[(3R)-3,4-dimethylpiperazin-1-yl]carbonyl}-5,6,7,8-tetrahydro[1]benzothieno[2,3-d]pyrimidin-4-yl]amino}-8-methyl-2H-spiro[imidazo[1,5-a]pyridine-3,3′-thietane]-1,5-dione]	0.3 nM
Cc1cc(Nc2ncnc3sc4c(c23)CC[C@H](C(=O)N2C[C@H]3C[C@@H]2CO3)C4)c(=O)n2c1C(=O)NC21CSC1 [Example 51, 8-Methyl-6-({(7S)-7-[(1R,4R)-2-oxa-5-azabicyclo[2.2.1]hept-5-ylcarbonyl]-5,6,7,8-tetrahydro[1]benzothieno[2,3-d]pyrimidin-4-yl}amino)-2H-spiro[imidazo[1,5-a]pyridine-3,3′-thietane]-1,5-dione]	0.4 nM

The next lines start with the values.

IC50	Structure (SMILES)
0.3 nM	Cc1cc(Nc2ncnc3sc4c(c23)CC[C@H](C(=O)N2CC(N(C)C)C2)C4)c(=O)n2c1C(=O)NC21CCCC1 [Example 40, 6′-{[(7S)-7-{[3-(Dimethylamino)azetidin-1-yl]carbonyl}-5,6,7,8-tetrahydro[1]benzothieno[2,3-d]pyrimidin-4-yl]amino}-8′-methyl-2′H-spiro[cyclopentane-1,3′-imidazo[1,5-a]pyridine]-1′,5′-dione]
1.2 nM	Cc1cc(Nc2ncnc3sc4c(c23)CC[C@H](C(=O)N2CC[C@H](N(C)C)C2)C4)c(=O)n2c1C(=O)NC21CCCC1 [Example 41, 6′-{[(7S)-7-{[(3S)-3-(Dimethylamino)pyrrolidin-1-yl]carbonyl}-5,6,7,8-tetrahydro[1]benzothieno[2,3-d]pyrimidin-4-yl]amino}-8′-methyl-2′H-spiro[cyclopentane-1,3′-imidazo[1,5-a]pyridine]-1′,5′-dione]
24.5 nM	Cc1cc(Nc2ncnc3sc4c(c23)CC[C@H](C(=O)O)C4)c(=O)n2c1C(=O)NC21CCC(F)(F)CC1 [Example 42, (7S)-4-[(4,4-Difluoro-8′-methyl-1′,5′-dioxo-1′,5′-dihydro-2′H-spiro[cyclohexane-1,3′-imidazo[1,5-a]pyridin]-6′-yl)amino]-5,6,7,8-tetrahydro[1]benzothieno[2,3-d]pyrimidine-7-carboxylic acid]
0.6 nM	Cc1cc(Nc2ncnc3sc4c(c23)CC[C@H](C(=O)N(C)C)C4)c(=O)n2c1C(=O)NC21CSC1 [Example 45, (7S)—N,N-Dimethyl-4-[(8-methyl-1,5-dioxo-1,5-dihydro-2H-spiro[imidazo[1,5-a]pyridine-3,3′-thietan]-6-yl)amino]-5,6,7,8-tetrahydro[1]benzothieno[2,3-d]pyrimidine-7-carboxamide]
0.4 nM	Cc1cc(Nc2ncnc3sc4c(c23)CC[C@H](C(=O)N2CC(N(C)C)C2)C4)c(=O)n2c1C(=O)NC21CSC1 [Example 48, 6-{[(7S)-7-{[3-(Dimethylamino)azetidin-1-yl]carbonyl}-5,6,7,8-tetrahydro[1]benzothieno[2,3-d]pyrimidin-4-yl]amino}-8-methyl-2H-spiro[imidazo[1,5-a]pyridine-3,3′-thietane]-1,5-dione]
0.6 nM	Cc1cc(Nc2ncnc3sc4c(c23)CC[C@H](C(=O)N(C)C)C4)c(=O)n2c1C(=O)NC21CCC(F)(F)CC1 [Example 52, (7S)-4-[(4,4-Difluoro-8′-methyl-1′,5′-dioxo-1′,5′-dihydro-2′H-spiro[cyclohexane-1,3′-imidazo[1,5-a]pyridin]-6′-yl)amino]-N,N-dimethyl-5,6,7,8-tetrahydro[1]benzothieno[2,3-d]pyrimidine-7-carboxamide]
13.5 nM	Cc1cc(Nc2ncnc3sc4c(c23)CC[C@H](C(=O)N2CCC2)C4)c(=O)n2c1C(=O)NC21CCC(F)(F)CC1 [Example 53, 6′-{[(7S)-7-(Azetidin-1-ylcarbonyl)-5,6,7,8-tetrahydro[1]benzothieno[2,3-d]pyrimidin-4-yl]amino}-4,4-difluoro-8′-methyl-2′H-spiro[cyclohexane-1,3′-imidazo[1,5-a]pyridine]-1′,5′-dione]
4.4 nM	Cc1cc(Nc2ncnc3sc4c(c23)CC[C@H](C(=O)N2CC(C#N)C2)C4)c(=O)n2c1C(=O)NC21CCC(F)(F)CC1 [Example 54, 1-({(7S)-4-[(4,4-Difluoro-8′-methyl-1′,5′-dioxo-1′,5′-dihydro-2′H-spiro[cyclohexane-1,3′-imidazo[1,5-a]pyridin]-6′-yl)amino]-5,6,7,8-tetrahydro[1]benzothieno[2,3-d]pyrimidin-7-yl}carbonyl)azetidine-3-carbonitrile]
0.6 nM	Cc1cc(Nc2ncnc3sc4c(c23)CC[C@H](C(=O)N2CC(N(C)C)C2)C4)c(=O)n2c1C(=O)NC21CCC(F)(F)CC1 [Example 55, 6′-{[(7S)-7-{[3-(Dimethylamino)azetidin-1-yl]carbonyl}-5,6,7,8-tetrahydro[1]benzothieno[2,3-d]pyrimidin-4-yl]amino}-4,4-difluoro-8′-methyl-2′H-spiro[cyclohexane-1,3′-imidazo[1,5-a]pyridine]-1′,5′-dione]
2 nM	Cc1cc(Nc2ncnc3sc4c(c23)CC[C@H](C(=O)N2CC[C@H](N(C)C)C2)C4)c(=O)n2c1C(=O)NC21CCC(F)(F)CC1 [Example 56, 6′-{[(7S)-7-{[(3S)-3-(Dimethylamino)pyrrolidin-1-yl]carbonyl}-5,6,7,8-tetrahydro[1]benzothieno[2,3-d]pyrimidin-4-yl]amino}-4,4-difluoro-8′-methyl-2′H-spiro[cyclohexane-1,3′-imidazo[1,5-a]pyridine]-1′,5′-dione]
